One data set deals with B16 melanoma. In words: B16 melanoma, in vivo antitumor activity. Particulars: for % T/C: B16 melanoma s.c. On the set-up: species or system BDF1 female mice.
The subject of another data set is Moser human colon. In words: in vitro cytotoxicity assay, Moser. It counts as cell-based. Particulars: 50% inhibition of cell growth; etoposide values (in parentheses) from the same run. On the procedure:
(§1) The test data involves a cytotoxicity assay versus various murine and human tumors, and in vivo evaluation against P-388 leukemia and B16 melanoma in mice.
(§2) The in vitro cytotoxicity assay involved growing various mammalian tumor cells, including human tumor cells, on microtitre plates employing established tissue culture methods. The concentration of each compound required to inhibit cell growth by 50% (IC50) was then determined by a four-fold serial dilution technique. The validity of the method has been supported by a report published in the "Proceedings of the American Association for Cancer Research", Vol. 25, 328, p. 1891 (1984). Tumor cells of the following types were employed for each compound tested: B16-F10 murine melanoma; Moser human colon; M109 murine lung; and three human colon tumor cell lines namely HCT-116, HCT-VM, and HCT-VP, the latter two being resistant to teniposide (VM) and etoposide (VP). A wide range of IC50 values was observed, and quantitative comparisons amongst test compounds or against the etoposide control values were not possible.

In data set [1] the test system is HCT-116 human colon tumor cell line. Briefly: in vitro cytotoxicity assay, HCT-116. To be noted: 50% inhibition of cell growth; etoposide values (in parentheses) from the same run. It counts as cell-based. On the procedure:
as §1, §2

Data set [2] has as its system HCT-VP human colon tumor cell line. Briefly: in vitro cytotoxicity assay, HCT/VP (etoposide resistant). To be noted: 50% inhibition of cell growth; etoposide values (in parentheses) from the same run. It counts as cell-based. On the procedure:
as §1, §2

Another data set has as its system P-388 murine leukemia. Briefly: P-388 murine leukemia, in vivo antitumor activity. On the set-up: species or system CDF1 female mice; Average Weight Change: unit: g. To be noted: for Average Weight Change / Maximum Effect % T/C: P-388, i.p.; for effectiveness relative to etoposide (% T/C): P-388, days 5 and 8 protocol. On the procedure:
The test protocol involved CDF1 female mice implanted intraperitoneally with a tumor inoculum of 10^6 ascites cells of P-388 murine leukemia and treated with various doses of a test compound, or with etoposide. The compounds were administered by intraperitoneal injection on various schedules. Groups of four mice were used for each dosage schedule and amount. A group of ten saline treated control mice was included in each series of experiments, and etoposide treated groups of six were included as a positive control. Thirty one, 47, and 49 day protocols were employed with the mean survival time in days being determined for each group of mice and the number of survivors at the end of the period being noted. The mice were weighed before treatment and again on day 5 or day 6. Mice weighing 20 grams each were employed and a loss in weight of up to approximately 2 grams was not considered excessive. The results are arranged in Table II and were determined in terms of % T/C which is the ratio of the mean survival time of the treated group to the mean survival time of the saline treated control group times 100. The saline treated control animals usually died within nine days. The "maximum effect" in the table is expressed as % T/C and the dose giving that effect is reported. Two different dosage regimens were employed. In one, the first dose of test drug was given on Day 1, the day of tumor inoculation, and second was given on Day 5. In the other, the first dose of test drug was given on Day 5 and a second dose on Day 8. According to the latter protocol, the etoposide control % T/C values are lower than according to the former protocol indicating a more stringent test regimen.

Data set [3] concerns HCT-VM human colon tumor cell line. Briefly: in vitro cytotoxicity assay, HCT/VM (teniposide resistant). It counts as cell-based. To be noted: 50% inhibition of cell growth; etoposide values (in parentheses) from the same run. On the procedure:
as §1, §2

Data set [4] deals with variety of cancers including small cell lung cancer, non-lymphocytic leukemia, and nonseminomatous testicular cancer. Particulars: AMA Drug Evaluations, 5th Edition, 1983; cited from earlier work.
A further data set has as its system B16-F10 murine melanoma. In words: in vitro cytotoxicity assay, B16-F10. Format: cell-based. Particulars: 50% inhibition of cell growth, etoposide values (in parentheses) from the same run. On the procedure: as §1, §2
The subject of the next data set is M109 murine lung. In words: in vitro cytotoxicity assay, M109. Particulars: 50% inhibition of cell growth; etoposide values (in parentheses) from the same run. It counts as cell-based. On the procedure: as §1, §2
The mark [5] stands for this setting: 40 mg/kg, treatment days 1 and 5.
Where [6] appears, read: 60 mg/kg, treatment days 1 and 5.
The mark [7] stands for this setting: 60 mg/kg, treatment days 5 and 8.
[8] abbreviates: 120 mg/kg, treatment days 1 and 5.
Setting [9] is: 160 mg/kg, treatment days 5 and 8.
The mark [10] stands for this setting: 200 mg/kg, treatment days 5 and 8.

Converted amounts (≈) assume the structure as drawn. “And” between values parts separate entries of the source, which are not always exact repeats. Equal entries are not always repeated.

Consider `COc1cc([C@@H]2c3cc4c(cc3[C@@H](O[C@@H]3O[C@@H]5CO[C@@H](C)O[C@H]5[C@H](O)[C@H]3O)[C@H]3COC(=O)[C@H]23)OCO4)cc(OC)c1O` [Etoposide, reference compound], for which the “% T/C” value in the data set with B16 melanoma (i.p., 100 mg/kg) was over 177. Moreover, the “IC50 Moser” value in the data set with Moser human colon was 38 mg/L and 39 mg/L. Moreover, the “IC50 HCT-116” value in data set [1] was 2.1 mg/L and 2.7 mg/L. Also, the “IC50 HCT/VP” value in data set [2] is 30 mg/L and 41 mg/L. Moreover, the “Average Weight Change” value was -1.9 with P-388 murine leukemia (setting [5]), -0.4 in the data set on P-388 murine leukemia (setting [6]) and “+2.1” in the data set with P-388 murine leukemia (setting [7]). The results for the “Maximum Effect % T/C” value in the data set on P-388 murine leukemia (setting [5]), in the data set with P-388 murine leukemia (setting [6]) and with P-388 murine leukemia (setting [7]) were over 450 % T/C, over 573 % T/C and 280 % T/C, respectively. In data set [3], the “IC50 HCT/VM” value is 6.1 mg/L and 3.1 mg/L. Moreover, the “activity in the treatment of cancers” value in data set [4] is “active”. Further, the figures for the “IC50 B16-F10” value in the data set with B16-F10 murine melanoma and with B16-F10 murine melanoma (listed as etoposide) were 1.9 mg/L (≈ 3.23 µM) and 9 to 12 mg/L, respectively.
As to `CCP1(CC)(CC)Oc2cc([C@@H]3c4cc5c(cc4[C@@H](O[C@@H]4O[C@@H]6CO[C@@H](C)O[C@H]6[C@H](O)[C@H]4O)[C@H]4COC(=O)[C@H]34)OCO5)cc(OC)c2O1` [Example 1, ETOPOSIDE-3',4'-DIOXATRIETHYLPHOSPHORANE], in the data set with B16 melanoma (B16 melanoma implanted subcutaneously, i.p. dosage), the “activity against B16 melanoma (prolongation of survival)” value is recorded as “active”. Further, in the data set on B16 melanoma (i.p. dosage, 40 mg/kg), the “% T/C” value amounted to 145%. In addition, the “IC50 Moser” value in the data set with Moser human colon is 64 mg/L and 85 mg/L. In addition, in data set [1], the “IC50 HCT-116” value is 47 mg/L and 46 mg/L. The “IC50 HCT/VP” value in data set [2] was 108 mg/L and 89 mg/L. Also, in the data set with P-388 murine leukemia (setting [8]), the “Average Weight Change” value was -0.7 and the “Maximum Effect % T/C” value is over 544 % T/C. Moreover, in [3], the “IC50 HCT/VM” value was 56 mg/L and 45 mg/L.
Turning to `COc1cc([C@@H]2c3cc4c(cc3[C@@H](O[C@@H]3O[C@@H]5CO[C@@H](C)O[C@H]5[C@H](O)[C@H]3O)[C@H]3COC(=O)[C@H]23)OCO4)cc2c1OP(C)(CO)(CO)O2` [Example 2], the “IC50 Moser” value in the data set on Moser human colon is 74 mg/L and 70 mg/L. In addition, the “IC50 HCT-116” value in data set [1] was 9.8 mg/L and 10.6 mg/L. Moreover, in [2], the “IC50 HCT/VP” value is 74 mg/L and 80 mg/L. Further, the “effectiveness relative to etoposide (% T/C)” value in the data set on P-388 murine leukemia was “Greater effectiveness”. Further, in the data set on P-388 murine leukemia (setting [9]), the “Average Weight Change” value was “+2.6” and the “Maximum Effect % T/C” value was 305 % T/C. Also, in the data set with B16-F10 murine melanoma, the “IC50 B16-F10” value was 21 mg/L and 30 mg/L. Further, the “IC50 M109” value in the data set on M109 murine lung was 76 mg/L and 71 mg/L.
Consider `COc1cc([C@@H]2c3cc4c(cc3[C@@H](O[C@@H]3O[C@@H]5CO[C@@H](C)O[C@H]5[C@H](O)[C@H]3O)[C@H]3COC(=O)[C@H]23)OCO4)cc2c1OP(CCC#N)(CCC#N)(CCC#N)O2` [Example 3, Etoposide-3',4'-Dioxa-Tris-(2-Cyanoethyl)Phosphorane], for which, in the data set on Moser human colon, the “IC50 Moser” value is 105 mg/L and 79 mg/L. In addition, the “IC50 HCT-116” value in [1] was 15.6 mg/L and 14.3 mg/L. In addition, the “IC50 HCT/VP” value in [2] was 64 mg/L and 99 mg/L. Also, the “effectiveness relative to etoposide (% T/C)” value in the data set with P-388 murine leukemia is given as “Greater effectiveness”. In addition, in the data set on P-388 murine leukemia (setting [10]), the “Average Weight Change” value was “+3.2” and the “Maximum Effect % T/C” value worked out at 285 % T/C. The “IC50 HCT/VM” value in data set [3] was 35 mg/L and 56 mg/L. Also, the “IC50 B16-F10” value in the data set on B16-F10 murine melanoma was 20 mg/L and 22 mg/L. Also, the “IC50 M109” value in the data set with M109 murine lung is 54 mg/L and 56 mg/L.
For `COc1cc([C@@H]2c3cc4c(cc3[C@@H](O[C@@H]3O[C@@H]5CO[C@@H](c6cccs6)O[C@H]5[C@H](O)[C@H]3O)[C@H]3COC(=O)[C@H]23)OCO4)cc(OC)c1O` [Teniposide], the “activity in the treatment of cancers” value in data set [4] is reported as “active”.
In the case of “Etoposide-Bis-(2-Chloroethyl)Phosphate, Mixture of 3' and 4'Regioisomers [Example 4]”, the “IC50 Moser” value in the data set on Moser human colon stood at 84 mg/L. In data set [2], the “IC50 HCT/VP” value was 203 mg/L and 168 mg/L. In the data set with P-388 murine leukemia (setting [8]), the “Average Weight Change” value was “+0.2” and the “Maximum Effect % T/C” value is reported as 150 % T/C. Also, in data set [3], the “IC50 HCT/VM” value was 63 mg/L and 82 mg/L. In addition, the “IC50 B16-F10” value with B16-F10 murine melanoma is 13.1 mg/L and 20.7 mg/L. Moreover, in the data set with M109 murine lung, the “IC50 M109” value is > 125 mg/L and 97 mg/L.
